In data set [1] the test system is NPR2. Description: cGMP production in tibia growth plates using cGi500 FRET sensor. In kind it is cell-based, mouse. The settings on record: for cGMP (CFP/YFP emission ratio from cGi500) on perfusion across the growth plate: newborn mouse tibia growth plate; for CNP-induced cGMP increase after FGF treatment: then FGF 80 min, newborn mouse tibia. The procedure:
cGMP production in chondrocytes within intact growth plates was measured using tibias dissected from newborn mice (0-1 day old) that globally expressed one or two copies of the cGi500 FRET sensor, as previously described (Shuhaibar et al., 2017).Tibias were dissected and cultured overnight on Millicell membranes in BGJb medium with 0.1% bovine serum albumin, 100 units/ml of penicillin, and 100 μg/ml of streptomycin. In preparation for imaging, each tibia was slit to remove the tissue overlying the growth plate. Where indicated, the tibia was incubated in LB-100, cantharidin, or control medium, followed by addition of FGF18 (0.5 μg/ml+1 μg/ml heparin) or control medium containing heparin only. The tibia was then placed in a perfusion slide and the growth plate was imaged on the stage of a confocal microscope, as previously described (Shuhaibar et al., 2017).
NPR2 activity in chondrocytes of intact growth plates was measured as previously described, using mice expressing a FRET sensor for cGMP, cGi500 (Shuhaibar et al., 2017). Tibias were isolated from newborn mice, and the overlying tissue was excised to expose the growth plate for confocal imaging (Data not shown). When the NPR2 agonist C-type natriuretic peptide (CNP) was perfused across the growth plate, the CFP/YFP emission ratio from cGi500 increased, indicating an increase in cGMP, due to stimulation of the guanylyl cyclase activity of NPR2 (Data not shown).
To investigate if LB-100 counteracts the inactivation of NPR2 by FGF, we used the following protocol:Tibias expressing cGi500 were preincubated with solutions of 1, 5 or 10 μM LB-100 for 60 minutes. FGF was then added and the incubation was continued for an additional 80 minutes. Following these incubations, the tibia was placed in a perfusion slide for confocal imaging, and cGMP production by NPR2 was monitored by measuring the increase in CFP/YFP emission ratio in response to CNP.

Data set [2] concerns NPR2. Description: Phos-tag gel electrophoresis / western blot of NPR2 in rib chondrocyte cultures. In kind it is cell-based, mouse. On the procedure:
Rib cages were dissected from newborn (0-2 day old) mice, and trimmed to remove the skin, spinal cord, and soft tissue around the sternum and ribs. Non-chondrocyte tissue was digested away by incubating the rib cages in 2 mg/ml pronase in PBS for one hour in a shaking water bath at 37° C., and then incubated in 3 mg/ml collagenase D in medium for one hour. After washing, the rib cages were transferred to a dish with fresh collagenase D and incubated for 5-6 hours, with trituration at 2 hours, to release the chondrocytes. The isolated cells were passed through a 40 um nylon cell strainer, resuspended in DMEM/F12 medium with 10% fetal bovine serum, 100 units/ml of penicillin, and 100 μg/m1 of streptomycin, and plated in 35 mm tissue culture dishes, at a cell density corresponding to one newborn mouse per plate. The cells were cultured for 3 days, at which point they were ˜75-90% confluent, then washed with PBS and incubated in serum-free medium for 18 hours. The cells were then incubated in LB-100 (10 μM), or control medium, followed by addition of FGF18 (0.5 ug/ml+1 μg/ml heparin) or control medium containing heparin only.
At end of the incubation period, dishes were washed in PBS and cells lysed in 250 μl of 1% SDS containing 10 mM sodium fluoride, 1 μM microcystin, and Roche protease inhibitor cocktail. Protein content was determined by a BCA assay. […]
For orientation: A western blot detects proteins with antibodies after separation by electrophoresis.

The next data set concerns Fgfr3^Y367C/+ femurs. Description: Ex vivo culture of fetal femurs from Fgfr3^Y367C/+ mice (growth in length and area). In kind it is cell-based, mouse. As to conditions: E16.5 Fgfr3^Y367C/+ femurs, 6 day culture; BMN-111 0.1 μM, LB-100 10 μM. The procedure:
(§1) FIG. 1. LB-100 and BMN-111 act synergistically to stimulate growth in fetal femurs from Fgfr3^Y367C/+ mice.(A) Diagram showing sites of action of LB-100 and BMN-111. (B) Representative photographs of fetal femurs from E16.5 day old Fgfr3+/+ (wildtype) and Fgfr3^Y367+ mice, before (D0) and after a 6 day (D6) culture with the indicated treatments. […] For all experiments, the concentration of BMN-111 was 0.1 μM, and the concentration of LB-100 was 10 μM. Symbols in graphs C-E indicate individual bones (n=4−10). Bars represent mean ±SEM and data were analyzed by unpaired two-tailed t-tests. Asterisks indicate significant differences (p<0.05) between indicated groups; n.s. indicates no significant difference (p>0.05).
(§2) Femurs were cultured ex vivo, as described previously (Jonquoy et al., 2012; Lorget et al., 2012). The left femur was cultured in the presence of LB-100 (10 μM), BMN-111 (0.1 μM), or LB-100 (10 μM)+BMN-111 (0.1 μM), and compared with the non-treated right femur. The bone's length was measured on day 0 (D0) and day 6 (D6). Images were captured with an Olympus SZX12 stereo microscope and quantified using cellSens software (Olympus). The results were expressed as the increase in femur length or area (D6-D0) in the presence or absence of LB-100, BMN-111, or LB-100+BMN-111.

Another data set has as its target PPP2 (Homo sapiens, UniProt P67775). As to conditions: in vitro, DiFMUP as substrate (D'Arcy et al., 2019); cited from earlier work.
For a further data set, the target named is T1, PPPS (Homo sapiens, UniProt P53041).
T1 sequence (P53041 1-499): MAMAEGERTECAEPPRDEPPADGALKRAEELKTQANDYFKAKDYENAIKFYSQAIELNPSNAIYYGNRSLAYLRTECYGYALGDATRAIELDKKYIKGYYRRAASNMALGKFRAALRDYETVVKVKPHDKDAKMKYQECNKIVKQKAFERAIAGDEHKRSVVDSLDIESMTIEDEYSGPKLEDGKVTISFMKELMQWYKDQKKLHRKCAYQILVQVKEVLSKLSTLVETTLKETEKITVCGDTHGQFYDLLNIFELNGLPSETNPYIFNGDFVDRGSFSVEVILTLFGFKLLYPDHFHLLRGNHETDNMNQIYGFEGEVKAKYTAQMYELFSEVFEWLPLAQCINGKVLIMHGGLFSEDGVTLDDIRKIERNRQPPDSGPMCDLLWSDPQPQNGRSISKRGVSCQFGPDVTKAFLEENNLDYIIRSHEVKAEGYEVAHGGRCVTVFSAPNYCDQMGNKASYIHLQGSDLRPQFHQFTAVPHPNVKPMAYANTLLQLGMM
As to conditions: in vitro, DiFMUP as substrate (D'Arcy et al., 2019); cited from earlier work.

The next data set relates to PPP1. As to conditions: same conditions, DiFMUP; Richard Honkanen, personal communication; cited from earlier work.
For data set [3] the following is noted: Chung et al., 2017; cited from earlier work.
Data set [4] has as its system NPR2. As to conditions: cantharidin 100 μM (Shuhaibar et al., 2017); cited from earlier work.
A further data set deals with Fgfr3+/+ femurs. Description: Ex vivo culture of fetal femurs from Fgfr3+/+ mice (growth in length and area). In kind it is cell-based, mouse. The settings on record: BMN-111 0.1 μM, LB-100 10 μM, 6 day culture. On the procedure: as §1, §2
Data set [5] has as its system growth plates of Fgfr3^Y367C/+ femurs. Description: Histology and immunohistochemistry of growth plates of ex vivo cultured Fgfr3^Y367C/+ femurs. Format: cell-based, mouse. On the procedure:
FIG. 2. Dual action of LB-100 and BMN-111 improves chondrocyte differentiation in growth plates of ex-vivo cultured Fgfr3^Y367C/+ femurs. Mean area of individual hypertrophic chondrocytes in proximal growth plates of femurs treated (n=4−6 bones measured for each condition, with 54-137 cells measured for each bone). Data were analyzed by one-way ANOVA followed by the Holm-Sidak multiple comparison test (*p<0.05, **p<0.01, ****p<0.0001).
Fetal femur (E16.5) explants were fixed in 4% paraformaldehyde, decalcified with EDTA (0.4 M), and embedded in paraffin. Serial 5 μm sections were stained with hematoxylin-eosin-safran (HES) reagent, using standard protocols. For immunohistochemical assessment, sections were labeled with the following antibodies and a Dako Envision Kit: anti-COL X (BIOCYC, N.2031501005; 1:50 dilution), anti-phosphorylated ERK1-2 ([…]) (Cell Signaling Technology, #4370; 1:100 dilution), and anti-S0X9 (polyclonal antibody, Santa Cruz Biotechnology Inc., catalog D0609; dilution 1:75). Images were captured with an Olympus PD70-IX2-UCB microscope and quantified using cellSens software.
We measured the total area occupied by chondrocytes within the whole growth plate and the area occupied by COLX-positive chondrocytes. The area for proliferating chondrocytes was calculated by subtracting the COLX-positive area from the whole growth plate area.

Data set [6] concerns children 5 to 14 years of age with achondroplasia. As to conditions: for up to 42 months; Savarirayan et al., 2019; cited from earlier work.

This is an account of results in patent US20230233553A1, “A NEW COMBINATION THERAPY FOR THE TREATMENT OF FGFR3- RELATED SKELETAL DISEASE” (INSERM (INSTITUT NATIONAL DE LA SANTÉ ET DE LA RECHERCHE …, priority 2020, published 2023).

One may read the IC50 as the concentration needed to halve the response being measured.

Sequence of PPP2 (P67775 whole entry): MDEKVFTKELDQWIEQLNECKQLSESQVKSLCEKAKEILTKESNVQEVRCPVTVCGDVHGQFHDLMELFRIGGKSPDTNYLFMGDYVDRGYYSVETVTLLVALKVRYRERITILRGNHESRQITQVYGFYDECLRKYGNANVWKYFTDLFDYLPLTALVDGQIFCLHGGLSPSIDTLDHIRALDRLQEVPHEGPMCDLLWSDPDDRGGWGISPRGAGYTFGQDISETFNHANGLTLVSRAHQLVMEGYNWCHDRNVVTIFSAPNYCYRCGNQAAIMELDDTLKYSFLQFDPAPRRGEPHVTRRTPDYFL

On to `CCN(CC)/[N+]([O-])=N/O` [DEA/NO], for which the “cGMP (CFP/YFP emission ratio from cGi500) on perfusion across the growth plate” value in the data set on NPR2 [1] is reported as “did not increase cGMP”.
On to `CN1CCN(C(=O)C2C3CCC(O3)C2C(=O)O)CC1` (stereo not drawn) [LB-100, 3-(4-methylpiperazine-1-carbonyl)-7-oxabicyclo[2.2.1]heptane-2-carboxylic acid], for which the “CNP-induced cGMP increase after FGF treatment” value is given as “had no effect” in the data set with NPR2 [1] (1 μM LB-100 preincubation 60 min), “enhanced” in the data set on NPR2 [1] (5 μM LB-100 preincubation 60 min) and “enhanced” in the data set with NPR2 [1] (10 μM LB-100 preincubation 60 min). The “Effectiveness in counteracting NPR2 inactivation by FGF compared with cantharidin” value in the data set on NPR2 [1] (5 μM LB-100 equivalent to 10 μM cantharidin) is given as “more effective than cantharidin”. The “Chondrocyte morphology in live growth plate (toxicity)” value in the data set with NPR2 [1] (10 μM LB-100, confocal microscopy) was “no visible change in chondrocyte morphology”. For the same molecule, the “Cell morphology of rib chondrocytes” value with NPR2 [2] (1 hour incubation with 10 μM LB-100) was “did not cause any visible change in cell morphology”. In the data set with NPR2 [2] (preincubation with 10 μM LB-100, primary rib chondrocytes), the “NPR2 dephosphorylation in response to FGF” value is reported as “only partial”. For the same molecule, the “Mean rate of increase in bone length relative to vehicle/untreated bones (growth rate ratio)” value with Fgfr3^Y367C/+ femurs is 1.04. Also, the “Rate of increase of total bone and cartilage area relative to control (growth rate ratio)” value in the data set with Fgfr3^Y367C/+ femurs is given as 1.40. Moreover, the IC50 on PPP2 is 390 ± 13 nM; at PPPS, 1820 ± 93 nM; in the data set on PPP1 it was 1800 ± 22 nM. Also, the “Toxicity in phase I clinical trial” value in [3] is “little toxicity”.
For `C[C@@]12C(=O)OC(=O)[C@]1(C)[C@H]1CC[C@@H]2O1` [cantharidin], the “Inactivation of NPR2 in growth plate chondrocytes by FGF” value with NPR2 [4] was “inhibits the inactivation of NPR2 in growth plate chondrocytes by FGF”.
Turning to “ANP: A-type natriuretic peptide, which activates the NPR1 guanylyl cyclase”, the “cGMP (CFP/YFP emission ratio from cGi500) on perfusion across the growth plate” value in the data set with NPR2 [1] is “did not increase cGMP”.
In the case of “[Cyc(23,39)]H2NPGQEHPNARKYKGANKKGLSKGCFGLKLDRIGSMSGLGC—OH [BMN-111]”, the “NPR2 activity in growth plate chondrocytes” value in the data set with NPR2 [1] (BMN-111 0.1 μM) was “stimulated NPR2 activity”. Besides, in the data set with Fgfr3^Y367C/+ femurs, the “Mean rate of increase in bone length relative to vehicle/untreated bones (growth rate ratio)” value was determined as 1.77; the “Rate of increase of total bone and cartilage area relative to control (growth rate ratio)” value was 1.51. Moreover, in the data set on Fgfr3+/+ femurs, the “Rate of bone growth (length and area)” value is given as “increased the rate of bone growth”. In data set [5] (COLX immunostaining, ex vivo cultured femurs), the “Size of Fgfr3^Y367C/+ hypertrophic chondrocytes” value was “increased the size”. Further, the “Increase of total proliferative growth plate area of the femur over vehicle” value in data set [5] (Fgfr3^Y367C/+ femurs, average) came to 20%. Further, the “Annualized growth velocity in phase 2” value in [6] is reported as “sustained increase in annualized growth velocity”.

B1: FGF18: fibroblast growth factor used with heparin to activate FGF receptor (protein, UniProt O76093 28-207, looked up)
Fibroblast growth factor 18: EENVDFRIHVENQTRARDDVSRKQLRLYQLYSRTSGKHIQVLGRRISARGEDGDKYAQLLVETDTFGSQVRIKGKETEFYLCMNRKGKLVGKPDGTSKECVFIEKVLENNYTALMSAKYSGWYVGFTKKGRPRKGPKTRENQQDVHFMKRYPKGQPELQKPFKYTTVTKRSRRIRPTHPA
For the molecule B1, the “cGMP increase in response to CNP perfusion after exposure to FGF18” value in the data set with NPR2 [1] (FGF18 0.5 μg/ml + 1 μg/ml heparin) was “suppressed the cGMP increase in response to CNP perfusion”.
